Source: ChEMBL document CHEMBL1649076, “Discovery of 5-chloro-N2-[(1S)-1-(5-fluoropyrimidin-2-yl)ethyl]-N4-(5-methyl-1H-pyrazol-3-yl)pyrimidine-2,4-diamine (AZD1480) as a novel inhibitor of the Jak/Stat pathway” (J Med Chem, 2011)

Key:
[1] = molecular target: T1, Tyrosine-protein kinase JAK3 (Homo sapiens, UniProt P52333); experiment: Inhibition of JAK3 using 5 mM of ATP
T1 sequence (P52333 whole entry): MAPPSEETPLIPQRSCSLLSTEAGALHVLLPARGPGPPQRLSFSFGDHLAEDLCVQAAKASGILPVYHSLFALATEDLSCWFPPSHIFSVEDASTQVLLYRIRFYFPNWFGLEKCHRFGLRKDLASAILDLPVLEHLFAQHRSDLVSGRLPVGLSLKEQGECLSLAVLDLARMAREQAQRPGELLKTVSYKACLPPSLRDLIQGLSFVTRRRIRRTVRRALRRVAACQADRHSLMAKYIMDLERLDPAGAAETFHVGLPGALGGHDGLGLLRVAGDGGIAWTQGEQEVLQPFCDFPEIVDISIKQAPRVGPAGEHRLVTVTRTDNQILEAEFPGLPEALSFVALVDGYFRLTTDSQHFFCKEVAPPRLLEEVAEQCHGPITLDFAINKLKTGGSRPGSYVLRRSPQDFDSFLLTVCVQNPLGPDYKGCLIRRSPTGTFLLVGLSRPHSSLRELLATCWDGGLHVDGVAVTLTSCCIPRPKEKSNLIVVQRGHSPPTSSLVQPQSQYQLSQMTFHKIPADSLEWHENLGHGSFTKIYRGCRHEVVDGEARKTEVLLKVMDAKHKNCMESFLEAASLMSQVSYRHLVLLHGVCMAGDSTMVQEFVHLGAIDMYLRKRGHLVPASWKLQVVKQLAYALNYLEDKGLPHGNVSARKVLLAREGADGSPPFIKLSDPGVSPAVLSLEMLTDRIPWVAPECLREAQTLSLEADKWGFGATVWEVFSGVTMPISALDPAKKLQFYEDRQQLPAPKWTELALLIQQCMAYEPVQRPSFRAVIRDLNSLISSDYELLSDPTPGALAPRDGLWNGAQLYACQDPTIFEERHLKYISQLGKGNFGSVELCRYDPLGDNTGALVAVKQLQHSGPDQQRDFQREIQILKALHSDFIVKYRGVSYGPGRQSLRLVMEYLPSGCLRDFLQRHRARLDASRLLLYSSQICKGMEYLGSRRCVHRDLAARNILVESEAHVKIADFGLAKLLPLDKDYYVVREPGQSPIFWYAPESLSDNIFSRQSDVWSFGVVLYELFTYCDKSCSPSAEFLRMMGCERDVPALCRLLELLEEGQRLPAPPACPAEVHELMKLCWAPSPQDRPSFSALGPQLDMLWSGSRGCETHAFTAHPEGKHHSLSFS

[2] = Growth inhibition of mouse BA/F3 cells expressing Tel-JAK2 kinase after 48 hrs by MTS assay; assay type: functional; details: BaF3, 48 h
[3] = test system: Liver microsomes; experiment: Intrinsic clearance in rat liver microsomes assessed per mg of protein at 2 uM by LCMS/MS analysis; assay type: ADME, Microsome
[4] = Oral bioavailability in Han Wistar rat at 10 mg/kg; assay type: ADME, organism-based; details: in vivo
[5] = Observed clearance in Han Wistar rat at 10 mg/kg, po and 3 mg/kg, iv; assay type: ADME, organism-based; details: in vivo
[6] = Volume of distribution at steady state in Han Wistar rat at 10 mg/kg, po and 3 mg/kg, iv; assay type: ADME, organism-based; details: in vivo, read-out: Vdss
[7] = Half life in Han Wistar rat at 10 mg/kg, po and 3 mg/kg, iv; assay type: ADME, organism-based; details: in vivo
[8] = Aqueous equilibrium solubility of the compound at pH 7.4 by HPLC-UV analysis; assay type: physicochemical
[9] = Octanol-water partition coefficient, log D of the compound at pH 7.4 by shake flask method; assay type: physicochemical
[10] = molecular target: T2, Tyrosine-protein kinase JAK2 (Homo sapiens, UniProt O60674); experiment: Inhibition of JAK2 using Km ATP concentration
[11] = molecular target: T2, Tyrosine-protein kinase JAK2; experiment: Inhibition of JAK2 using 5 mM of ATP
[12] = Inhibition of Stat5 phosphorylation in mouse Ba/F3 cells expressing EPOR; details: BaF3

T2 sequence (O60674 whole entry): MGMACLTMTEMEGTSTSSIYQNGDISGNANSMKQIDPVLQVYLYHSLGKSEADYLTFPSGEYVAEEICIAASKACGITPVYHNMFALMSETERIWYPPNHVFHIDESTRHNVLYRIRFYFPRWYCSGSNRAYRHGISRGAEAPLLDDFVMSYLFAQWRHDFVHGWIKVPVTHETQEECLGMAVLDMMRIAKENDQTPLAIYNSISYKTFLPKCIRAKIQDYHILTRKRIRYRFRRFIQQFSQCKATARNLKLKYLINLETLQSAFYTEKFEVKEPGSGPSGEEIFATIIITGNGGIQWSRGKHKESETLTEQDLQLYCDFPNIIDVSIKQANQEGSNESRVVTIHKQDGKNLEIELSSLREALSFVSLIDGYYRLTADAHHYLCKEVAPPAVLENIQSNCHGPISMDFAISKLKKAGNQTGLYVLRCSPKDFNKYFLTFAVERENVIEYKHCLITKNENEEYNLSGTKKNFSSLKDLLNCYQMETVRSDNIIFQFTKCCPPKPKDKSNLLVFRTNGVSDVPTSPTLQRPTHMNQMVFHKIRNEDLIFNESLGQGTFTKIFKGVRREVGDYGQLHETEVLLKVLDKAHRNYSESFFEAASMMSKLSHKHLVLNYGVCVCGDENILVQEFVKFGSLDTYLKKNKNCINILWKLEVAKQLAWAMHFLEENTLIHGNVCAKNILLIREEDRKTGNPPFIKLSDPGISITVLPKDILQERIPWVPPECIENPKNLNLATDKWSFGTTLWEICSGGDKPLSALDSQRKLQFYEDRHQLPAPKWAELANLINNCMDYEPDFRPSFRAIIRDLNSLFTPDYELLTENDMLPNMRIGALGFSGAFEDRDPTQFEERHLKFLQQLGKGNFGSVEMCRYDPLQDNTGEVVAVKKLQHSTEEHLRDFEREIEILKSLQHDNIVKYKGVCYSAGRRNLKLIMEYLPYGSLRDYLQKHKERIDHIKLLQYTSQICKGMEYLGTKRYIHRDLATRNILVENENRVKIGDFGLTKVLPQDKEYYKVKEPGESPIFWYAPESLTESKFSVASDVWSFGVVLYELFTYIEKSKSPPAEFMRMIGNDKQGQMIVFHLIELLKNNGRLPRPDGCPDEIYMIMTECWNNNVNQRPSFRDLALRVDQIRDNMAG

SMILES | IC50 [1] | clearance [3] | bioavailability [4] | clearance [5] | Vd [6] | half-life [7] | solubility thermodynamic [8] | logD [9] | IC50 [10] | IC50 [11] | EC50 [12] | GI50 [2]
COc1cc(Nc2nc(N[C@@H](C)c3ncc(F)cn3)ncc2Cl)n[nH]1 | > 30000 nM |  |  |  |  |  | > 460 µM | < 2.6 | 3 nM | 108 nM |  | 410 nM
Cc1cc(Nc2nc(N[C@@H](C)c3ncc(F)cn3)ncc2C)n[nH]1 | 8350 nM | 25 µL/min/mg | 100% | 18 mL/min/kg | 2.4 L/kg | 1.9 h | > 460 µM | < 2.6 | < 3 nM | 4 nM |  | 96 nM
Cc1cc(Nc2nc(O[C@@H](C)c3ncc(F)cn3)ncc2Cl)n[nH]1 | 12700 nM |  |  |  |  |  | > 460 µM | < 2.6 |  |  | 39000 nM | 170 nM
Cc1cc(Nc2nc(O[C@H](C)c3ncc(F)cn3)ncc2Cl)n[nH]1 | > 30000 nM |  |  |  |  |  | > 460 µM | < 2.6 |  |  |  | > 10000 nM
COc1cc(Nc2nc(N[C@@H](C)c3ncc(F)cn3)ncc2Br)n[nH]1 | > 30000 nM |  |  |  |  |  | > 460 µM | < 2.6 | 4 nM | 108 nM |  | 590 nM
Cc1cc(Nc2nc(N[C@@H](C)c3ncc(F)cn3)ncc2Br)n[nH]1 | 4590 nM |  |  |  |  |  | > 460 µM | < 2.6 | < 3 nM | 10 nM |  | 89 nM

The next lines start with results.

IC50 [1] | clearance [3] | bioavailability [4] | clearance [5] | Vd [6] | half-life [7] | solubility thermodynamic [8] | logD [9] | IC50 [10] | IC50 [11] | EC50 [12] | SMILES | GI50 [2]
5250 nM | 10 µL/min/mg | 100% | 12 mL/min/kg | 0.8 L/kg | 0.85 h | > 460 µM | < 2.6 |  |  |  | Cc1cc(Nc2nc(N[C@@H](C)c3ncc(F)cn3)ncc2F)n[nH]1 | 230 nM
 |  |  |  |  |  | > 460 µM | < 2.6 | 3 nM |  |  | C[C@H](Nc1ncc(F)c(Nc2cc(C3CC3)[nH]n2)n1)c1ncc(F)cn1 | 250 nM
 |  |  |  |  |  | > 460 µM | < 2.6 | < 3 nM |  |  | C[C@H](Nc1ncc(Cl)c(Nc2cc(C3CC3)[nH]n2)n1)c1ncc(F)cn1 | 150 nM
